Laboratory results taken from the supplement of paper PMC4932681.
Structures can show the parent of a compound that is named as a salt.

Columns and labels:
Assay in all cases: viability inhibition at highest dose (% inhibition); higher = more growth inhibition
[1] = system: BT-474 Tam1; details: 4-OH-tamoxifen in medium 1 µM; 72 h
Description: (§1)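 Percent inhibition of viability (CellTiter-Glo, 72 h) at the highest tested concentration (D5), normalised to DMSO (0%) and 100 µM benzethonium chloride (100%). Resistant lines and the 'in 1µM tamoxifen' arms were tested in 1 µM 4-OH-tamoxifen.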

[2] = system: BT-474 Tam2; details: 4-OH-tamoxifen in medium 1 µM; 72 h
Description: as §1

[3] = system: BT-474; details: 72 h
Description: as §1

[4] = system: MCF-7 Tam1; details: 4-OH-tamoxifen in medium 1 µM; 72 h
Description: as §1

[5] = system: MCF-7; details: 72 h
Description: as §1

[6] = system: T-47D Tam1; details: 4-OH-tamoxifen in medium 1 µM; 72 h
Description: as §1

[7] = system: T-47D Tam2; details: 4-OH-tamoxifen in medium 1 µM; 72 h
Description: as §1

[8] = system: T-47D; details: 72 h
Description: as §1

[9] = system: ZR-75-1 Tam1; details: 4-OH-tamoxifen in medium 1 µM; 72 h
Description: as §1

[10] = system: ZR-75-1 Tam2; details: 4-OH-tamoxifen in medium 1 µM; 72 h
Description: as §1

[11] = system: ZR-75-1; details: 72 h
Description: as §1

| Compound | viability inhibition at highest dose [1] | viability inhibition at highest dose [2] | viability inhibition at highest dose ([3]; 4-OH-tamoxifen in medium 0 µM) | viability inhibition at highest dose ([3]; 4-OH-tamoxifen in medium 1 µM) | viability inhibition at highest dose [4] | viability inhibition at highest dose ([5]; 4-OH-tamoxifen in medium 0 µM) | viability inhibition at highest dose ([5]; 4-OH-tamoxifen in medium 1 µM) | viability inhibition at highest dose [6] | viability inhibition at highest dose [7] | viability inhibition at highest dose ([8]; 4-OH-tamoxifen in medium 0 µM) | viability inhibition at highest dose ([8]; 4-OH-tamoxifen in medium 1 µM) | viability inhibition at highest dose [9] | viability inhibition at highest dose [10] | viability inhibition at highest dose ([11]; 4-OH-tamoxifen in medium 0 µM) | viability inhibition at highest dose ([11]; 4-OH-tamoxifen in medium 1 µM) |
| --- | --- | --- | --- | --- | --- | --- | --- | --- | --- | --- | --- | --- | --- | --- | --- |
| O=C(c1cc(Cc2n[nH]c(=O)c3ccccc23)ccc1F)N1CCN(C(=O)C2CC2)CC1 [Olaparib] (drug 10000 nM) | 11.7 | 6.64 | -3.98 | -18.1 | -1.72 | -12.5 | 18 | 3.42 | 13.8 | 10.8 | 0.545 | 9.56 | 6.09 | 2.83 | -2.23 |
| COC(=O)C[C@](O)(CCCC(C)(C)O)C(=O)O[C@@H]1C(OC)=C[C@]23CCCN2CCc2cc4c(cc2[C@H]13)OCO4 [Omacetaxine (Homoharringtonine)] (drug 10000 nM) | 82.1 | 73.4 | 19.5 | 75 | 62.7 | 82.1 | 75.5 | 74.5 | 71.4 | 81.1 | 55.6 | 53.7 | 76.1 | 54.1 | 52.2 |
| O=C(O)C(=O)O.[NH-][C@@H]1CCCC[C@H]1[NH-].[Pt+2] [Oxaliplatin] (drug 10000 nM) | -7.39 | 1.63 | -9.5 | -21.1 | -5.32 | 4.06 | 3.34 | 1.11 | 5.52 | -7.69 | -13.3 | 4.08 | 5.48 | 2.13 | -0.0598 |
| O=C(Nc1cccnc1)N1CCC(Cc2cccc(Oc3ccc(C(F)(F)F)cn3)c2)CC1 [PF-3845] (drug 10000 nM) | 95.4 | 95.7 | 72 | 81.8 | 29.1 | 53.1 | 58.6 | 52.3 | 36.1 | 40.6 | 25.3 | 39.4 | 49.9 | 30.5 | 51.3 |
| COc1ccccc1S(=O)(=O)Nc1ccc2c(c1)CN(C)C(=O)N2 [PFI-1] (drug 10000 nM) | 25.7 | 30.3 | 32.8 | 25.7 | 4.98 | 44.2 | 38.1 | 36.4 | 32.8 | 26.2 | 14 | 23.8 | 25.8 | 13.1 | 25.2 |
| Cc1ccc([N+](=O)[O-])cc1S(=O)(=O)N(C)/N=C/c1cnc2ccc(Br)cn12 [PIK-75 (HCl)] (drug 10000 nM) | 99.3 | 98.6 | 97.9 | 97.7 | 81.4 | 64.9 | 85.5 | 91.4 | 83.6 | 60.4 | 56.9 | 88.8 | 83.9 | 80 | 71 |
| CC(=O)O[C@H]1C(=O)[C@@]2(C)[C@H]([C@H](OC(=O)c3ccccc3)[C@]3(O)C[C@H](OC(=O)[C@H](O)[C@@H](NC(=O)c4ccccc4)c4ccccc4)C(C)=C1C3(C)C)[C@]1(OC(C)=O)CO[C@@H]1C[C@@H]2O [Paclitaxel] (drug 1000 nM) | 35.2 | 25.5 | 42.7 | 55.7 | -17.1 | 28.8 | 25.8 | 26 | 35.9 | 47 | 15.8 | 4.53 | 0.492 | 26.9 | 4.99 |
| Cc1[nH]c2ccccc2c1CCNCc1ccc(/C=C/C(=O)NO)cc1 [Panobinostat] (drug 1000 nM) | 84.4 | 69.6 | 87.5 | 97.2 | 21.3 | 89.4 | 88.4 | 85.3 | 68.7 | 96.4 | 95.5 | 43.1 | 51.4 | 50.5 | 40.7 |
| C/C(=C\c1csc(C)n1)[C@@H]1C[C@@H]2O[C@]2(C)CCC[C@H](C)[C@H](O)[C@@H](C)C(=O)C(C)(C)[C@@H](O)CC(=O)O1 [Patupilone  (Epothilone B)] (drug 1000 nM) | 38.2 | 28 | 49.2 | 56.4 | -9.25 | 24.1 | 21.5 | 22 | 33.4 | 38.1 | 8.65 | 1.36 | 1.47 | 8.28 | -8.45 |
| Cc1ccc(Nc2nccc(N(C)c3ccc4c(C)n(C)nc4c3)n2)cc1S(N)(=O)=O [Pazopanib] (drug 10000 nM) | 23.6 | 7.37 | -2.15 | -6.21 | 1.65 | 8.65 | 16.4 | 4.97 | 23.6 | 12.7 | -6.23 | 6.13 | 10.8 | -3.01 | 11.1 |
| Nc1nc2[nH]cc(CCc3ccc(C(=O)N[C@@H](CCC(=O)O)C(=O)O)cc3)c2c(=O)[nH]1 [Pemetrexed] (drug 10000 nM) | -2.78 | 4.1 | -2.99 | -11.2 | -1.81 | -15.5 | 14.3 | -2.82 | 9.3 | -12.4 | 8.3 | 1.51 | -6.3 | -12.7 | -4.01 |
| OC[C@H]1O[C@@H](n2cnc3c2N=CNC[C@H]3O)C[C@@H]1O [Pentostatin] (drug 10000 nM) | 30.3 | 16 | 15.9 | 13.3 | 19.7 | 47.4 | 30.7 | 48 | 35.5 | 45.1 | 28.1 | 46.9 | 40.8 | 48.5 | 41.3 |
| CS(=O)(=O)N1CCN(Cc2cc3nc(-c4cccc5[nH]ncc45)nc(N4CCOCC4)c3s2)CC1 [Pictilisib (GDC-0941)] (drug 10000 nM) | 86.1 | 82.5 | 63.6 | 90.6 | 64.4 | 76.8 | 81.6 | 70.6 | 67.4 | 68.5 | 76.6 | 76.9 | 76.1 | 64.3 | 60.7 |
| CC[C@@H]1C(=O)OC[C@@H]1Cc1cncn1C [Pilocarpine] (drug 40000 nM) | 4.36 | 6.51 | -0.744 | -6.73 | -6.84 | -3.51 | 9.03 | -0.157 | 9.72 | -7.15 | -0.389 | 8.48 | -0.127 | -3.18 | -6.19 |
| O=C(CCBr)N1CCN(C(=O)CCBr)CC1 [Pipobroman] (drug 10000 nM) | -12.7 | -8.7 | -11.7 | -7.15 | -9.06 | -15.2 | 9.48 | 1.06 | 9.55 | -14.7 | -5.88 | 1.68 | -10.5 | -15 | -9.45 |
| c1cc(CN2CCCNCCNCCCNCC2)ccc1CN1CCCNCCNCCCNCC1 [Plerixafor] (drug 2500 nM) | 3.09 | 1.19 | 4.13 | -27.6 | -8.37 | -2.68 | 1.01 | 2.69 | 1.1 | -9.65 | -11.9 | 1.99 | 4.58 | -5.05 | 1.12 |
| CO[C@H](C(=O)[C@@H](O)[C@@H](C)O)[C@@H]1Cc2cc3cc(O[C@H]4C[C@@H](O[C@@H]5C[C@@H](O)[C@H](O)[C@@H](C)O5)[C@H](O)[C@@H](C)O4)c(C)c(O)c3c(O)c2C(=O)[C@H]1O[C@H]1C[C@@H](O[C@@H]2C[C@@H](O)[C@@H](O[C@@H]3C[C@](C)(O)[C@H](O)[C@@H](C)O3)[C@@H](C)O2)[C@H](O)[C@@H](C)O1 [Plicamycin  (Mithramycin A)] (drug 10000 nM) | 95.9 | 95.5 | 67.7 | 95 | 77.5 | 88.9 | 88.9 | 62 | 58.7 | 68.7 | 44.3 | 75.3 | 83.4 | 62.6 | 63.7 |
| C[C@]12C=CC(=O)C=C1CC[C@@H]1[C@@H]2[C@@H](O)C[C@@]2(C)[C@H]1CC[C@]2(O)C(=O)CO [Prednisolone] (drug 10000 nM) | -1.37 | -3.77 | -0.102 | -6.44 | 0.119 | 12 | 17.2 | 2 | 6.88 | -5.27 | -8.96 | -0.584 | 9.43 | -7.97 | 0.573 |
| C[C@]12C=CC(=O)C=C1CC[C@@H]1[C@@H]2C(=O)C[C@@]2(C)[C@H]1CC[C@]2(O)C(=O)CO [Prednisone] (drug 10000 nM) | 0.805 | -4.01 | -5.13 | -15.9 | -6.7 | 4.17 | -2.57 | 0.12 | 6.96 | -2.36 | -14.5 | -0.823 | 5.99 | -12.2 | -9.15 |
| COCC1(CO)C(=O)C2CCN1CC2 (stereo not given) [Prima-1 Met] (drug 10000 nM) | -5.47 | 0.869 | -9.27 | -13.3 | -10.1 | 10.8 | 3.83 | 1.75 | -9.64 | -7.38 | -11.1 | -1.64 | 17.7 | -1.59 | -9.16 |
| CNNCc1ccc(C(=O)NC(C)C)cc1 [Procarbazine] (drug 10000 nM) | 3.72 | -9.69 | -6.73 | -0.151 | -2.96 | -15.7 | -26.1 | 0.22 | 18.8 | -8.64 | 3.29 | 5.75 | -4.74 | -8.18 | 1.35 |
